Read-outs that look alike come from different tables or passages of the source.
How the values were obtained:
[1] = pharmacokinetic study with fluconazole (CYP2C9 inhibitor) co-administration in healthy volunteers; settings: fluconazole co-administered
[2] = system: cytochrome P450 system; settings: cited from earlier work
[3] = human, in vivo
[4] = aspirin added to warfarin, patients with atrial fibrillation already on warfarin; cited from earlier work
[5] = Phase 2/3 randomized, double-blind, active-control study tecarfarin versus warfarin, TTR as primary efficacy endpoint; type: in vivo, human
[6] = time-within-therapeutic range (TTR), supporting clinical data; type: in vivo, human; settings: stable anticoagulation with tecarfarin
Source text: Tecarfarin is not metabolized via the cytochrome P450 system, but rather via an alternate pathway and enzyme (h-CE2) that is abundant throughout the body and essentially insaturable. Tecarfarin has a reliable and stable PK profile and PD response (anticoagulation), a well-understood mechanism of action (similar to other VKAs), with supporting clinical data.

[7] = molecular target: T1, human carboxylesterase 2 (hCE-2) (Homo sapiens, UniProt O00748); settings: cited from earlier work
T1 sequence (O00748 27-559): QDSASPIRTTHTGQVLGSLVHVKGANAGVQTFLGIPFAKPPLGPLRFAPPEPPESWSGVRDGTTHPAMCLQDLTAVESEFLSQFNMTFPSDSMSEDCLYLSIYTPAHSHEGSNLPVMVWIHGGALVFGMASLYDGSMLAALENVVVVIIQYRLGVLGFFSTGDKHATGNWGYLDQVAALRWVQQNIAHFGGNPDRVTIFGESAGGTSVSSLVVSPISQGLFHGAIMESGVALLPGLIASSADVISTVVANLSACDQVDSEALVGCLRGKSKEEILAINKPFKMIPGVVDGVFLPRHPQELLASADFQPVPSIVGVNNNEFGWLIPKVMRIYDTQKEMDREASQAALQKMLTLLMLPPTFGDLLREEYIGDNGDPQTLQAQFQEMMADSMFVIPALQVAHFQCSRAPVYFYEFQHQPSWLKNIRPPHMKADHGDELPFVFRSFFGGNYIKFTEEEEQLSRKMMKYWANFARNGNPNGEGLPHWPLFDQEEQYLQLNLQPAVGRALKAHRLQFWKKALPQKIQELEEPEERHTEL

**Q.** With CC(=O)C[C@H](c1ccccc1)c1c(O)c2ccccc2oc1=O [R-warfarin] as the molecule, how does the “effect of fluconazole co-administration on drug exposure” value [1] read?
**A.** The value was “significantly prolonged”.

**Q.** Which results are given for CC(=O)CC(c1ccccc1)c1c(O)c2ccccc2oc1=O (racemic) [warfarin]?
**A.** metabolism by the cytochrome P450 system [2]: metabolized by multiple different isoenzymes of the cytochrome P450 system (primarily CYP2C9, CYP1A2 and CYP3A4); effect of CKD on the effect of CYP2C9 genetic variation on exposure [3]: significantly increased; mean plasma concentrations in subjects with CKD versus healthy subjects [3]: significantly higher

**Q.** Which “effect of fluconazole co-administration on drug exposure” value [1] does the source give for CC(=O)C[C@@H](c1ccccc1)c1c(O)c2ccccc2oc1=O [(S)-warfarin, reference compound] here?
**A.** Its value is “significantly prolonged”.

**Q.** And the “mean plasma concentrations in subjects with CKD versus healthy subjects” value (CKD versus healthy subjects)?
**A.** Its value is “significantly higher”.

**Q.** And the “effect of CKD on the effect of CYP2C9 genetic variation on exposure” value (CKD, CYP2C9 genotype)?
**A.** The value was “significantly increased”.

**Q.** For CC(=O)Oc1ccccc1C(=O)O [aspirin], which “incremental rate of major bleeding” value [4] is on record?
**A.** Its value is 1.6 % per year.

**Q.** Which “TTR on tecarfarin compared to warfarin” value ([5]; CYP2C9 genotypic variants on CYP2C9 inhibitors, small number of subjects) does the source give for CC(OC(=O)c1ccc(Cc2c(O)c3ccccc3oc2=O)cc1)(C(F)(F)F)C(F)(F)F [Tecarfarin, 1,1,1,3,3,3-hexafluoro-2-methyl-2-propanyl 4-[(4-hydroxy-2-oxo-2H-chromen-3-yl)methyl] benzoate] here?
**A.** Its value is “higher”.

**Q.** What about the “percent of time-within-therapeutic-range (TTR), tecarfarin versus warfarin” value ([5]; general population requiring chronic oral anticoagulation, blinded treatment) of the same molecule?
**A.** Its value is “did not differ significantly”.

**Q.** And the “TTR, tecarfarin versus warfarin” value ([5]; subjects with CYP2C9 wild type genotype)?
**A.** Its value is “significant improvement”.

**Q.** What about the “effect of fluconazole co-administration on PK” value [1] of the same molecule?
**A.** The value was “unaffected”.

**Q.** And the “time-within-therapeutic range (TTR)” value [6]?
**A.** The value was greater than 72%.

**Q.** And the “metabolic pathway (carboxylesterase)” value [7]?
**A.** Its value is “hydrolysis via by human carboxylesterase 2 (hCE-2)”.

**Q.** And the “change of elimination half-life (t1/2) in CKD” value (CKD versus healthy subjects)?
**A.** Its value is “decreased”.

**Q.** And the “mean plasma concentrations in subjects with CKD versus healthy subjects” value (CKD versus healthy subjects)?
**A.** The value was “not significantly higher”.

**Q.** And the “metabolism by the cytochrome P450 system” value [2]?
**A.** The value was “does not proceed via the cytochrome P450 system”.
